Six molecules from publication PMC6691587, “New CXCR1/CXCR2 inhibitors represent an effective treatment for kidney or head and neck cancers sensitive or refractory to reference treatments” (Theranostics, 2019) can be followed below.

Molecules are shown by their SMILES. Like-named read-outs stand apart in the source and are kept apart here.

One test concerns K562. The test is described as follows: XTT cell viability assay, K562 CML cells. The format is cell-based, human. As to conditions: Homo sapiens, K562, 48 h, SD 10%, mean of three experiments. How it is done: (§1) Fifty microliters of sodium 3′-[1-phenylaminocarbonyl)-3,4-tetrazolium]-bis(4-methoxy-6-nitro) benzene sulfonic acid hydrate (XTT) reagent was added to each well. The assay is based on the cleavage of the yellow tetrazolium salt XTT to form an orange formazan dye by metabolically active cells. This bio-reduction occurs in viable cells only and is related to NAD(P)H production through glycolysis. Therefore, the amount of formazan dye measured at 490 nm directly correlated with the number of metabolically active cells reflecting cell proliferation and viability. Each assay was performed in quadruplicate.
(Tetrazolium assays rely on reduction of a dye to a coloured formazan, in cell work by metabolically active cells.)

In the next test the test system is MDA-MD-231. The test is described as follows: XTT cell viability assay, breast cancer cells. The following applies: Homo sapiens, 48 h, SD 10%, mean of three experiments. The class given is cell-based, human. As to the method: as §1
In the next test the test system is CAL33. The test is described as follows: XTT cell viability assay, CAL33 HNSCC cells. The class given is cell-based, human. As to conditions: Homo sapiens, CAL-33; XTT assay, 48 h; SD 10%; mean of three experiments; read-out: IC50 33 (HNSCC). As to the method:
as §1

The subject of a further test is A498. In words: XTT cell viability assay, A498 RCC cells. The class given is cell-based, human. As to conditions: Homo sapiens, A498; XTT assay, 48 h; SD 10%; mean of three experiments; read-out: IC50 498 (Kidney RCC). How it is done:
as §1

Another test has as its system Molm13. In words: XTT cell viability assay, Molm13 AML cells. The class given is cell-based, human. The following applies: Homo sapiens, MOLM-13, 48 h, SD 10%, mean of three experiments. How it is done:
as §1

The next test concerns SKM1. The test is described as follows: XTT cell viability assay, SKM1 MDS cells. The class given is cell-based, human. As to conditions: Homo sapiens, SKM-1, 48 h, SD 10%, mean of three experiments, read-out: IC50 SK (MDS). As to the method: as §1
The next test deals with OCI-AML3. In words: XTT cell viability assay, OCI-AML3 AML cells. The following applies: Homo sapiens, OCI-AML-3, 48 h, SD 10%, mean of three experiments, read-out: IC50 L3 (AML). The class given is cell-based, human. As to the method: as §1
The test system of test [1] is panel of human tumor cell lines. In words: XTT screening on a panel of tumor cell lines. The class given is cell-based. The following applies: for IC50: Homo sapiens; for anti-proliferation/survival activity on malignant cells: in words. How it is done: as §1
In a further test the test system is CAL27. In words: XTT cell viability assay, CAL27 HNSCC cells. As to conditions: Homo sapiens, CAL-27; XTT assay, 48 h; SD 10%; mean of three experiments; read-out: IC50 27 (HNSCC). The format is cell-based, human. As to the method: as §1
Another test deals with OCI-AML2. The test is described as follows: XTT cell viability assay, OCI-AML2 AML cells. The format is cell-based, human. As to conditions: Homo sapiens, OCI-AML2, 48 h, SD 10%, mean of three experiments, read-out: IC50 L2 (AML). How it is done:
as §1

Another test has as its system Molm14. The test is described as follows: XTT cell viability assay, Molm14 AML cells. The format is cell-based, human. As to conditions: Homo sapiens, MOLM-14, 48 h, SD 10%, mean of three experiments. How it is done: as §1
In another test the test system is 786-O. In words: XTT cell viability assay, 786-O RCC cells. The class given is cell-based, human. The following applies: Homo sapiens, 786-0; XTT assay, 48 h; SD 10%; mean of three experiments; read-out: IC50 786 (Kidney RCC). How it is done: as §1
In the next test the test system is RCC4. In words: XTT cell viability assay, RCC4 RCC cells. The format is cell-based, human. The following applies: Homo sapiens, RCC4, 48 h, SD 10%, mean of three experiments, read-out: IC50 R4 (Kidney RCC). As to the method:
as §1

In a further test the test system is 786-O cells. In words: Ectopic model of RCC (786-O xenograft). The format is in vivo, nude (nu/nu) female mice. The following applies: C29 100 µg i.p. three per week; danirixin 200 µg three times a week; sunitinib 50 mg/kg oral gavage five times a week. How it is done:
These studies were carried out in strict accordance with the recommendations in the Guide for the Care and Use of Laboratory Animals. Our experiments were approved by the ''Comité National Institutionnel d'Ethique pour l'Animal de Laboratoire'' (reference: PEA-255 and PEA-277). Cells were injected subcutaneously into the flank of 5-week-old nude (nu/nu) female mice (Janvier). When the tumor reached 100 mm^3, mice were treated. The tumor volume was determined with a caliper (v = L*l2*0.5).
2- Seven million 786-O cells were injected subcutaneously.

The next test concerns HuVEC. The test is described as follows: Boyden chamber migration assay. As to conditions: CXCL7 50 ng/ml, 2.5 µmol/L compound. The format is cell-based, human. How it is done: CXCL7 or VEGFA-stimulated chemotaxis assays were monitored using modified Boyden chambers containing polycarbonate membranes (8-μm pores, Transwell; Corning, Sigma). Cells were seeded onto the upper side of the filters and chambers were placed on 24-well plates containing CXCL7 (50ng/ml) or VEGFA (50ng/ml). Cell migration was followed for 24 h at 37°C in 5% CO2. Migratory cells on the lower membrane surface were fixed in 3% paraformaldehyde, stained with 0.1% crystal violet.

What is called IC50 is the concentration that inhibits the measured activity by half.

Turning to `O=C(Nc1cccc(Cl)c1)Nc1cccc(Cl)c1` [C9], the IC50 in the test on K562 was 10 µM; with MDA-MD-231 it was 15 µM; with CAL33, 10 µM; with A498, 10 µM; in the test on Molm13, greater than 25 µM; in the test with SKM1, greater than 25 µM. The IC50 in the test with OCI-AML3 is greater than 25 µM; in test [1] (read-out: IC50 for solid tumors (breast and kidney)), 10 to 20 µM; in the test with CAL27, 12 µM; in the test on OCI-AML2, 20 µM; with Molm14 it was 20 µM; in the test with 786-O, 15 µM. Further, the IC50 with RCC4 is 15 µM.

For the molecule `O=C(Nc1ccccc1)Nc1nc2ccccc2o1` [C18], the IC50 with K562, in the test on MDA-MD-231, with CAL33, in the test with A498, in the test with Molm13 and with SKM1 was greater than 25 µM each time. In addition, the IC50 in the test with OCI-AML3, with CAL27, with OCI-AML2, with Molm14, in the test on 786-O and with RCC4 was greater than 25 µM in each case. In test [1], the “anti-proliferation/survival activity on malignant cells” value is reported as “did not give anti-proliferation/survival activity”.

Consider `Cc1c(F)cccc1NC(=O)Nc1ccc(Cl)c(S(=O)(=O)[C@H]2CCCNC2)c1O` [danirixin, reference compound], for which the “efficacy on tumor growth, 786-O xenograft” value in the test on 786-O cells is given as “equivalent efficacy”. Besides, the “CXCL7-dependent migration of HuVECs” value with HuVEC is listed as “no effect”.

For `CCN(CC)CCNC(=O)c1c(C)[nH]c(/C=C2\C(=O)Nc3ccc(F)cc32)c1C` [sunitinib], in the test on 786-O cells, the “efficacy on tumor growth, 786-O xenograft” value is reported as “equivalent efficacy”.

Turning to `S=C(Nc1ccccc1)Nc1nc2ccccc2o1` [C19], the IC50 in the test with K562, with MDA-MD-231, in the test with CAL33, with A498, in the test with Molm13 and in the test on SKM1 was greater than 25 µM throughout. Besides, the IC50 in the test with OCI-AML3, in the test with CAL27, in the test on OCI-AML2, with Molm14, with 786-O and in the test with RCC4 was greater than 25 µM in each case. In test [1], the “anti-proliferation/survival activity on malignant cells” value is “did not give anti-proliferation/survival activity”.

On to `O=C(Nc1ccc(Cl)cc1)Nc1nc2ccccc2[nH]1` [C16], for which the IC50 with K562 was 12 µM; with MDA-MD-231, 20 µM; in the test on CAL33, 15 µM; in the test on A498 it was 9 µM; in the test with Molm13, greater than 25 µM; in the test with SKM1, greater than 25 µM. Besides, the IC50 in the test with OCI-AML3 was 22 µM; in test [1] (read-out: IC50 values for several cancer cell lines), less than 20 µM; with CAL27 it was 15 µM; in the test with OCI-AML2, 20 µM; with Molm14, 20 µM; in the test on 786-O, 20 µM. Further, in the test with RCC4, the IC50 came to 20 µM.
